Experimental findings from patent US20240287138A1, “CYCLIC PEPTIDES FOR INHIBITING TNF RECEPTOR 1 ACTIVITY” (Merck Sharp & Dohme LLC, priority 2023, published 2024) are described below.

Structures are written as SMILES. Numbered stars: 1 amine (or outer) side, 2 acyl side, 3 side chain; on linkers, the order of the positions; unused ones are H or OH. Square brackets hold non-standard residues; d marks the D form. Peptide text beside a SMILES is read from it. * marks the point of attachment. Trp(βS-Me,7-OMe) = COc1cccc2c([C@H](C)[C@H](N)C(=O)O)c[nH]c12; Phe(4-SO2NH2) = N[C@@H](Cc1ccc(S(N)(=O)=O)cc1)C(=O)O; Phe(2-F,4-COOH) = N[C@@H](Cc1ccc(C(=O)O)cc1F)C(=O)O; Trp(7-CN) = N#Cc1cccc2c(C[C@H](N)C(=O)O)c[nH]c12; Trp(7-Cl) = N[C@@H](Cc1c[nH]c2c(Cl)cccc12)C(=O)O; Ala(pyrimidin-5-yl) = N[C@@H](Cc1cncnc1)C(=O)O; Phe(3-CONH2) = NC(=O)c1cccc(C[C@H](N)C(=O)O)c1; Phe(4-CONH2) = NC(=O)c1ccc(C[C@H](N)C(=O)O)cc1; Phe(4-COOH) = N[C@@H](Cc1ccc(C(=O)O)cc1)C(=O)O; 4Pal(3S-Me) = C[C@@H](c1ccncc1)[C@H](N)C(=O)O; Trp(7-aza) = N[C@@H](Cc1c[nH]c2ncccc12)C(=O)O; X9 = CN(C)[C@@H]1C[C@H](C(=O)[*:2])N([*:1])C1; Pip(5R-OH) = O=C(O)[C@@H]1CC[C@@H](O)CN1; X1 = O=C([C@@H]1CC[C@H](N[*:1])C1)[*:2]; Pip(4-aza) = O=C(O)[C@@H]1CNCCN1; 4Pal = N[C@@H](Cc1ccncc1)C(=O)O; Abu(4-CN) = N#CCC[C@H](N)C(=O)O; NMeE = CN[C@@H](CCC(=O)O)C(=O)O; dHyp = O=C(O)[C@H]1C[C@H](O)CN1; Ahp(2) = CCCCC[C@H](N)C(=O)O; αMeS = C[C@](N)(CO)C(=O)O; Carboxymethyl = O=C(O)C*; Nle = CCCC[C@H](N)C(=O)O; Sar = CNCC(=O)O

One test has as its target T1, human soluble TNFR1 (sTNFR1) (Homo sapiens, UniProt P19438).
T1 construct: made in house; host or cells: Sf21 (baculovirus)
T1 sequence (P19438 with tags, fused parts or gaps): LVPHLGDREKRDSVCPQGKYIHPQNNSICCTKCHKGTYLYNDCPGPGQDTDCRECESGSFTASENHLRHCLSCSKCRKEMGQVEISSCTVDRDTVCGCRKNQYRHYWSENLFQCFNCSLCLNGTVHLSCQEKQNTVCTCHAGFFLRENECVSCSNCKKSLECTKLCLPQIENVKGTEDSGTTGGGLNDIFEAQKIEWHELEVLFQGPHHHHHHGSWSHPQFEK
In words: Human sTNFR1-peptide displacement assay (LanthaScreen Eu TR-FRET binding assay).
Settings: not given
In a few lines: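 Readout is the 665/615 nm TR-FRET ratio (Eu anti-His donor, streptavidin-Alexa647 acceptor), normalized to DMSO and saturating displacer, fit by Morrison-based five-parameter logistic for Kd^app. His-tagged sTNFR1 (1-211) prebound to 100 nM biotinylated peptide SEQ ID NO.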
For orientation: Time-resolved FRET reads energy transfer from a long-lived donor to a nearby acceptor.
In turn, `CCCCC[C@@H]1NC(=O)[C@@H]2CC[C@@H](C2)NC(=O)[C@H]([C@@H](C)c2c[nH]c3c(OC)cccc23)NC(=O)CN(C)C(=O)[C@H](Cc2ccc(C(N)=O)cc2)NC(=O)[C@H](Cc2ccc(C(N)=O)cc2)NC(=O)[C@](C)(CO)NC(=O)[C@H](Cc2c[nH]c3c(C#N)cccc23)NC(=O)[C@H](Cc2ccc(C(=O)O)cc2)NC(=O)[C@H](CC(N)=O)NC(=O)[C@H]2C[C@H](O)CN2C(=O)[C@H](Cc2c[nH]c3ccccc23)NC(=O)[C@H](CCC#N)NC(=O)[C@H]([C@@H](C)c2ccncc2)NC1=O` [SEQ ID NO. 79] (cyclo([Ahp(2)][4Pal(3S-Me)][Abu(4-CN)]W[dHyp]N[Phe(4-COOH)][Trp(7-CN)][αMeS][Phe(4-CONH2)][Phe(4-CONH2)][Sar][Trp(βS-Me,7-OMe)][X1])) returned a Kd of 0.15 nM.

`CCCC[C@@H]1NC(=O)[C@@H]2CC[C@@H](C2)NC(=O)[C@H]([C@@H](C)c2c[nH]c3c(OC)cccc23)NC(=O)CN(C)C(=O)[C@H](Cc2ccc(O)cc2)NC(=O)[C@H](Cc2ccc(OCC(=O)O)cc2)NC(=O)[C@](C)(CO)NC(=O)[C@H](Cc2c[nH]c3c(Cl)cccc23)NC(=O)[C@H](Cc2ccncc2)NC(=O)[C@H](CC(N)=O)NC(=O)[C@H](CCC(=O)O)N(C)C(=O)[C@H](Cc2c[nH]c3ccccc23)NC(=O)[C@@H]2CNCCN2C(=O)[C@H](Cc2ccncc2)NC1=O` [SEQ ID NO. 80] (cyclo([4Pal][Trp(7-Cl)][αMeS]Y(Carboxymethyl)Y[Sar][Trp(βS-Me,7-OMe)][X1][Nle][4Pal][Pip(4-aza)]W[NMeE]N)) gave a Kd of 0.3 nM.

With `CCCCC[C@@H]1NC(=O)[C@@H]2CC[C@@H](C2)NC(=O)[C@H]([C@@H](C)c2c[nH]c3c(OC)cccc23)NC(=O)CN(C)C(=O)[C@H](Cc2cccc(C(N)=O)c2)NC(=O)[C@H](Cc2ccc(C(N)=O)cc2)NC(=O)[C@](C)(CO)NC(=O)[C@H](Cc2c[nH]c3c(C#N)cccc23)NC(=O)[C@H](Cc2ccc(C(=O)O)cc2)NC(=O)[C@H](CC(N)=O)NC(=O)[C@H]2C[C@@H](N(C)C)CN2C(=O)[C@H](Cc2c[nH]c3ccccc23)NC(=O)[C@@H]2CC[C@@H](O)CN2C(=O)[C@H](Cc2ccncc2)NC1=O` [SEQ ID NO. 84] (cyclo([4Pal][Pip(5R-OH)]W[X9]N[Phe(4-COOH)][Trp(7-CN)][αMeS][Phe(4-CONH2)][Phe(3-CONH2)][Sar][Trp(βS-Me,7-OMe)][X1][Ahp(2)])), the Kd worked out at 0.06 nM.

Still in this test, the particulars now being: displacement of biotinylated peptide SEQ ID NO. 1 from sTNFR1; 20 point titration, 5-parameter fit based on Morrison equation (tight binding); read-out: TR-FRET Kd^app.
As to `CCCC[C@@H]1NC(=O)[C@@H]2CC[C@@H](C2)NC(=O)[C@H]([C@@H](C)c2c[nH]c3c(OC)cccc23)NC(=O)CN(C)C(=O)[C@H](Cc2ccc(C(=O)O)cc2F)NC(=O)[C@H](Cc2ccc(S(N)(=O)=O)cc2)NC(=O)[C@](C)(CO)NC(=O)[C@H](Cc2c[nH]c3c(C#N)cccc23)NC(=O)[C@H](Cc2ccc(C(=O)O)cc2F)NC(=O)[C@H](CC(N)=O)NC(=O)[C@H]2C[C@H](O)CN2C(=O)[C@H](Cc2c[nH]c3ncccc23)NC(=O)[C@@H]2CC[C@@H](O)CN2C(=O)[C@H](Cc2cncnc2)NC1=O` [SEQ ID NO. 51] (cyclo(N[Phe(2-F,4-COOH)][Trp(7-CN)][αMeS][Phe(4-SO2NH2)][Phe(2-F,4-COOH)][Sar][Trp(βS-Me,7-OMe)][X1][Nle][Ala(pyrimidin-5-yl)][Pip(5R-OH)][Trp(7-aza)][dHyp])), the Kd is 0.05 nM.

Regarding `CCCC[C@@H]1NC(=O)[C@@H]2CC[C@@H](C2)NC(=O)[C@H]([C@@H](C)c2c[nH]c3c(OC)cccc23)NC(=O)CN(C)C(=O)[C@H](Cc2ccc(C(=O)O)cc2)NC(=O)[C@H](Cc2ccc(C(N)=O)cc2)NC(=O)[C@](C)(CO)NC(=O)[C@H](Cc2c[nH]c3c(Cl)cccc23)NC(=O)[C@H](Cc2ccncc2)NC(=O)[C@H](CC(N)=O)NC(=O)[C@H]2C[C@H](O)CN2C(=O)[C@H](Cc2c[nH]c3ccccc23)NC(=O)[C@@H]2CC[C@@H](O)CN2C(=O)[C@H](Cc2ccncc2)NC1=O` [SEQ ID NO. 53] (cyclo([4Pal][Trp(7-Cl)][αMeS][Phe(4-CONH2)][Phe(4-COOH)][Sar][Trp(βS-Me,7-OMe)][X1][Nle][4Pal][Pip(5R-OH)]W[dHyp]N)), the Kd was determined as 0.09 nM.

Take `CCCC[C@@H]1NC(=O)[C@@H]2CC[C@@H](C2)NC(=O)[C@H]([C@@H](C)c2c[nH]c3c(OC)cccc23)NC(=O)CN(C)C(=O)[C@H](Cc2ccc(C(=O)O)cc2)NC(=O)[C@H](Cc2ccc(C(N)=O)cc2)NC(=O)[C@](C)(CO)NC(=O)[C@H](Cc2c[nH]c3c(Cl)cccc23)NC(=O)[C@H](Cc2ccncc2)NC(=O)[C@H](CC(N)=O)NC(=O)[C@H]2C[C@H](O)CN2C(=O)[C@H](Cc2c[nH]c3ccccc23)NC(=O)[C@@H]2CNCCN2C(=O)[C@H](Cc2ccncc2)NC1=O` [SEQ ID NO. 83] (cyclo([4Pal][Trp(7-Cl)][αMeS][Phe(4-CONH2)][Phe(4-COOH)][Sar][Trp(βS-Me,7-OMe)][X1][Nle][4Pal][Pip(4-aza)]W[dHyp]N)): the Kd was 0.16 nM.
